{"source": "paper PMC6378217", "about": "“The lysyl oxidase like 2/3 enzymatic inhibitor, PXS‐5153A, reduces crosslinks and ameliorates fibrosis” (Journal of Cellular and Molecular Medicine, 2018)", "key": {"MAO-A": {"target": "MAO-A (Homo sapiens, UniProt P21397)", "sequence (P21397 whole entry)": "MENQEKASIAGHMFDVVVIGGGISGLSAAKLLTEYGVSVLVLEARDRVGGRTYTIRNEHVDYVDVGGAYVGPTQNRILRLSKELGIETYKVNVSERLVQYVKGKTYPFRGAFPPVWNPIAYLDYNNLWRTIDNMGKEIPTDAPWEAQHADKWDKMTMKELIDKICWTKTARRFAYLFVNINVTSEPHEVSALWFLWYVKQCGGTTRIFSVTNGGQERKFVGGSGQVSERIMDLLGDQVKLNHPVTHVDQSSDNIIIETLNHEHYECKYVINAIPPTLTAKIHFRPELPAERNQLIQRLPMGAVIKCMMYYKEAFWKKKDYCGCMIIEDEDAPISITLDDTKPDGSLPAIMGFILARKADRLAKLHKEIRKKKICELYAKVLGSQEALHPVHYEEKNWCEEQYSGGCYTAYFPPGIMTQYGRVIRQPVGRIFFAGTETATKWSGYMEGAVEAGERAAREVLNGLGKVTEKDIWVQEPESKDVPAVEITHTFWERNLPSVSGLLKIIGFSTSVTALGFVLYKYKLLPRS", "test": "MAO-A enzymatic activity assay", "format": "biochemical", "method": "The measurement of the enzymatic activity of all lysyl oxidase family members was based on the detection of hydrogen peroxide with an Amplex‐Red oxidation assay, as described in Zhou et al26 Recombinant human semicarbazide sensitive amine oxidase (SSAO/VAP1), diamine oxidase (DAO) and monoamine oxidases A and B (MAO‐A and MAO‐B) assays were performed as previously described.27 For detailed enzymatic procedures, see supporting information.\nRecombinant human semicarbazide sensitive amine oxidase (SSAO/VAP1), diamine oxidase (DAO) and monoamine oxidases A and B (MAO-A and MAO-B) assays were performed as previously described."}, "[1]": {"system": "Glutamate, NMDA, Phencyclidine", "test": "Eurofins Hit Profiling Screen", "format": "binding", "settings": "10 μmol/L"}, "LOXL2 [2]": {"target": "T1, LOXL2 (Homo sapiens, UniProt Q9Y4K0)", "T1 sequence (Q9Y4K0 26-774)": "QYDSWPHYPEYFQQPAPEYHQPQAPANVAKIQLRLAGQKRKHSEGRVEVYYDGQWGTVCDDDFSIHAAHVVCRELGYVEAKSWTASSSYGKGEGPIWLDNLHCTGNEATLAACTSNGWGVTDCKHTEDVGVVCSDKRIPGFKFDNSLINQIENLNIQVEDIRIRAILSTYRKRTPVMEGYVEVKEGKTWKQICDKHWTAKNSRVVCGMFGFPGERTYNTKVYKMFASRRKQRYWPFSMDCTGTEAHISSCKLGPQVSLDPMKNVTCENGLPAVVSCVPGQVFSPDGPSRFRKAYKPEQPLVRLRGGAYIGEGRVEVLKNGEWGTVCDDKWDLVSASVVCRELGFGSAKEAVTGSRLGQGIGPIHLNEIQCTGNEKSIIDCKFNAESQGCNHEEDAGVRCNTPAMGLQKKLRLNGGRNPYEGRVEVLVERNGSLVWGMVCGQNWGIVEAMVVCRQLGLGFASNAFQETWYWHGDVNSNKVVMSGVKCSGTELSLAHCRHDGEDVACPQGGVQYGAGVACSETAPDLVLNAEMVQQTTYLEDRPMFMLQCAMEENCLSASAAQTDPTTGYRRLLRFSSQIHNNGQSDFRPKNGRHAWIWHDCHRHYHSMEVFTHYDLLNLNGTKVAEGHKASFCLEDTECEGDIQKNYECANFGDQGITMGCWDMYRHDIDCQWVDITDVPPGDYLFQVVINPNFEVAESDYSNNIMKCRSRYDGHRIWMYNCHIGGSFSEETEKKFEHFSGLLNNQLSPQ", "test": "Substrate competition (putrescine), LOXL2", "format": "biochemical", "settings": "increasing concentrations of the substrate", "method": "The measurement of the enzymatic activity of all lysyl oxidase family members was based on the detection of hydrogen peroxide with an Amplex-Red oxidation assay, as described in Zhou et al.[1]; miniaturised in 384 well format, with the appropriate combination of substrate and assay buffer for each individual enzyme. After a 30 minute pre-incubation of the enzyme at 37 °C with the test compound (or with different incubation times for the time-dependency assay), one volume of reaction mixture containing 120 μM Amplex Red (AR) (Life Technologies), 1.5 U/mL horseradish peroxidase (HRP) (Sigma-Aldrich) and the specific substrate was added to each sample. The relative fluorescence units (RFU) were then measured every 2.5 minutes for 30 minutes at 37°C, excitation 565 nm and emission 590, on a BMG Clariostar Microplate Reader. All the substrates were used at concentrations corresponding to their Km towards the corresponding enzyme, or with a range of different concentrations for the substrate competition experiments.\nThe measurement of substrate competition was based on the release of hydrogen peroxide as previously described. The target enzyme was incubated with the inhibitor, and differing concentrations of the substrate (putrescine) in reaction mixture and measured."}, "LOXL2 [3]": {"target": "T1, LOXL2", "test": "In vitro crosslinking assay", "format": "biochemical", "parameters": "purchased R&D Systems", "settings": "200 nmol/L PXS-5153A, 20 nmol/L rhLOXL2 daily for 5 days, crosslinks on day 7", "method": "About 200 μL of 3 mg/mL collagen (rat tail, type I, Thermo Fisher) was combined with 800 μL of 50 mmol/L sodium borate buffer (pH 8.2) and 20 nmol/L of rhLOXL2 (with or without inhibitor, PXS‐5153A 200 nmol/L). Enzyme/inhibitor were replenished daily for 5 days. Samples were incubated at 37°C and crosslinks were extracted on day 7.\nAbout 10mg of freeze‐dried samples were reduced with NaBH4. Pellet then underwent acid hydrolysis in 6 mol/L HCl at 100°C for 24 hours. Hydroxyproline and crosslinks were extracted from the hydrolysate using an automated solid phase extraction system (Gilson GX‐271 ASPECA system). After extraction and drying, hydroxyproline and crosslinks were analysed by UHPLC‐ESI‐MS/MS on a Thermo Dionex UHPLC and TSQ Endura triple quad mass spectrometer. Total protein was quantified in the samples using a commercially available kit (QuickZyme Biosciences, Leiden, The Netherlands). For detailed procedures, see supporting information."}, "LOXL2 [4]": {"target": "T1, LOXL2", "test": "Collagen oxidation assay", "format": "biochemical", "parameters": "purchased R&D Systems", "settings": "20 nmol/L rhLOXL2, different concentrations of PXS-5153A, slope at 20-40 minute", "method": "Collagen oxidation assay was based on the release of hydrogen peroxide as previously described27 and detailed in the supporting information. Briefly, collagen was combined with rhLOXL2 with or without the pan‐lysyl oxidase inhibitor BAPN (β‐aminoproprionitrile, 100 μmol/L, Sigma‐Aldrich) or PXS‐5153A. An Amplex reaction mixture was added into each well. The slope per minute of the kinetic curves for each sample was calculated using MARS data analysis software (BMG labtech) in the linear phase (between the 20 and 40 minute time points).\nCollagen oxidation assay was based on the release of hydrogen peroxide as described previously described. In a 384 black well plate, 25 μL of collagen (rat tail, type I, Thermo Fisher, 1.5 mg/mL in 50 mM sodium borate buffer, pH 8.2) was combined with 25 μL rhLOXL2 (R&D Systems) with or without the pan-lysyl oxidase inhibitor BAPN (100 μM, Sigma-Aldrich) or PXS-5153A. A reaction mixture using AR (120 μM; Life Technologies), HRP (1.5 U/mL; Sigma-Aldrich) was prepared in 50 mM sodium borate buffer. […] The relative fluorescence units (RFU) were read every 1 minute for 3 hours at 37°C, excitation 565 nm and emission 590 (Clariostar, BMG labtech). The slope per minute of the kinetic curves for each sample was calculated using MARS data analysis software (BMG labtech) in the linear phase (between the 20-40 minute time points)."}}}
{"compound": "Cc1c(-c2cccc(S(=O)(=O)N(C)C)c2)c2ncccc2n1C/C(F)=C/CN.Cl.Cl", "note": "[PXS-5153A]", "values": [{"measurement": "IC50", "setting": "MAO-A", "result": "> 30", "unit": "µM"}, {"measurement": "% inhibition", "setting": "[1]", "result": 3, "unit": "%"}, {"measurement": "substrate competition", "setting": "LOXL2 [2]", "result": "in a competitive manner"}, {"measurement": "crosslink formation DHLNL, HLNL, PYD, DPD", "setting": "LOXL2 [3]", "result": "prevented all crosslink formation"}, {"measurement": "collagen oxidation", "setting": "LOXL2 [4]", "result": "impeding collagen oxidation"}]}
